# Reference: patent US12171737B2, “Methods for reducing the symptoms of neurodegenerative disease in a human” (priority 2021, dated 2024)
# Assays:
# [1] = tested on: patient with Parkinsonism; assay: Case reports: skin application in patients with Parkinsonism/dystonia (Examples 3-5); type: in vivo, human
# Description: This person presented with left hemiparetic neglect, reduced finger fine motor capacity, flat affect, tremor, and reduced extended arm wrist rotation and loss of shoulder extension and abduction. The diagnosis of Parkinsonism on clinical grounds was confirmed at a major hospital chain neurology clinic. […] Their extended wrist rotation range measured 60 degrees initially; by six months this approached 200 degrees. At 3 months they could extend their shoulder quickly to 180 degrees (initially slowly to 60 degrees.) This functionality continues to be maintained over 15 months of intermittent applications of salve and ingestion of isomerized safflowerate.
# This person presented while on Sinemet prescribed by a major hospital chain neurology clinic for Parkinsonism. […] They also had reduced head rotation with painful limitation.
# This individual stopped his Sinemet, continued every other day application of the Example 12 and oral intake of isomerized safflowerate. Improvement has maintained for 4 months, with rare intermittent right-hand tremors after a day of heavy farming.
# This person sustained the onset of right arm dystonic Parkinsonism several months after a traumatic brain injury. […] Personal life issues prevented further applications.
# The patient was instructed to rotate, extend and open their hand while they were actively having right hand-arm Parkinsonism tremors. They were unable to either rotate their wrist or open their hand voluntarily initially as shown on the left picture so they attempt to force it open with their left hand. The patient was treated with application of the salve over their right arm, subocciput, and upper torso bilaterally.
# [2] = tested on: gram positive and negative bacteria as well as fungi including Malassezia, Aspergillus, and Candida; assay: Anti-microbial capacity of K-CLA; type: cell-based
# patient with dystonia = assay: Case reports: skin application in patients with dystonia (Examples 1, 2); type: in vivo, human; conditions: Example 1 patient, right arm dystonia; salve applied
# Description: Over the years, I observed progression of dystonia of a patient. […] An extended forearm wrist rotation was used to identify and measure progression of dystonia. A normal human can rotate the wrist of the fully extended arm more than 270 degrees. The patient was falling to 200 degrees with increasing pain in the opposing forearm muscles.
# Last spring, I applied a salve of K-CLA, potassium-conjugated linoleic acid, to potentially kill the microbial residents in the skin causing the dystonia.
# This person presented with right arm dystonia after complaints of hand incoordination worsening with vibration. Muscle tenderness and loss of range of motion of extended-wrist rotation defined the clinical diagnosis confirmed by pattern EMG (Nicolet) within a university neurology clinic. The Potassium safflowerate of Example 11 as a salve. […] The improved capacity including reduction in hand tremor has continued with application of Example 10 and 11 application every 2-7 days.
# patient with Alzheimer's = assay: Case reports: skin application in Alzheimer's syndrome (Examples 7, 8); type: in vivo, human; conditions: patient with early Alzheimer's disease and cortical atrophy
# [3] = tested on: patients having dystonia with traumatic brain injury; assay: Video capture of wrist rotation before and after application, five patients with Dystonia/Parkinsonism (Example 9); type: in vivo, human; conditions: for increase in external wrist rotation / increase in internal wrist rotation: FIG. 1
# Description: Five patients aged 42-67 using recorded videos of hand movement Dystonia/Parkinsonism before and after application of Example 12 for 5-10 days. Four had bilateral symptoms. Using video capture to measure the rotation of their wrists before and after application of the […]. […] This improvement has been sustained with intermittent continuing application of the salve to the skin of the forearm and shoulder for 3 months.
# Subsequently, I have recorded videos of hand movement in patients with Dystonia/Parkinsonism before and after similar treatment. Several had bilateral symptoms. Video capture was used to measure the rotation of their wrists before and after application of the K-CLA 0.1-12%. […] This improvement has been sustained with intermittent continuing application of the salve to the skin of the forearm and shoulder. […] Application of a broad spectrum antimicrobial with profound antifungal capacity can reverse symptoms of Dystonia/Parkinsonism.
# [4] = tested on: bacteria and fungi (cross-kingdom); conditions: hospital disinfection; Changaris and Carenbauer 2022; cited from earlier work
# [5] = tested on: malassezia species, candida, aspergillus and many gram positive and negative bacteria; conditions: Changaris and Sullivan 2019; cited from earlier work
Compound,"right arm dystonic Parkinsonism ([1]; Example 5, person, as tolerated)",anti-microbial capacity [2],dystonic symptoms (patient with dystonia),"skin reactions ([1]; hemiparetic Parkinsonism patient and early Alzheimer's patient, skin application)","acute hemiparetic Parkinsonism ([1]; patient who refused conventional medications, salve)",mental acuity and emotionality (patient with Alzheimer's),"extended wrist rotation ([3]; applied as salve, within weeks)",increase in external wrist rotation ([3]; first patient),increase in internal wrist rotation ([3]; first patient),"capacity to draw, patient's own impression ([3]; one patient, an architect)",increase in external wrist rotation ([3]; second patient),increase in internal wrist rotation ([3]; second patient),cross-kingdom anti-bacterial and anti-fungal efficacy [4],biocidal capacity [5]
"C#CCN(C)[C@H](C)Cc1ccccc1 [selegiline, reference compound]",without significant improvement,–,–,–,–,–,–,–,–,–,–,–,–,–
potassium-conjugated linoleic acid [K-CLA],–,extraordinary anti-microbial capacity,Most of the dystonic symptoms were resolved,intense skin reactions,improving acute hemiparetic Parkinsonism with both strength and agility,clinical improvement in mental acuity and emotionality,measurable improvement,~20%,~30%,capacity to draw has improved,~10%,~20%,sufficient to satisfy the United States Environmental Protection Agency requirements for hospital disinfection,biocidal capacity against at least four malassezia species
